In patent publication US20250145642A1, “BICYCLIC HETEROARENES AND METHODS OF THEIR USE” (Kineta, Inc., priority 2021, published 2025) one finds IC50 data, which are given here for 27 compounds.

Chain of full-length human PIKFYVE (N-terminal GST-fusion) (Q9Y2I7 whole entry S696N/L932S/Q995L/T998S/S1033A/Q1183K, the tested form may be a part): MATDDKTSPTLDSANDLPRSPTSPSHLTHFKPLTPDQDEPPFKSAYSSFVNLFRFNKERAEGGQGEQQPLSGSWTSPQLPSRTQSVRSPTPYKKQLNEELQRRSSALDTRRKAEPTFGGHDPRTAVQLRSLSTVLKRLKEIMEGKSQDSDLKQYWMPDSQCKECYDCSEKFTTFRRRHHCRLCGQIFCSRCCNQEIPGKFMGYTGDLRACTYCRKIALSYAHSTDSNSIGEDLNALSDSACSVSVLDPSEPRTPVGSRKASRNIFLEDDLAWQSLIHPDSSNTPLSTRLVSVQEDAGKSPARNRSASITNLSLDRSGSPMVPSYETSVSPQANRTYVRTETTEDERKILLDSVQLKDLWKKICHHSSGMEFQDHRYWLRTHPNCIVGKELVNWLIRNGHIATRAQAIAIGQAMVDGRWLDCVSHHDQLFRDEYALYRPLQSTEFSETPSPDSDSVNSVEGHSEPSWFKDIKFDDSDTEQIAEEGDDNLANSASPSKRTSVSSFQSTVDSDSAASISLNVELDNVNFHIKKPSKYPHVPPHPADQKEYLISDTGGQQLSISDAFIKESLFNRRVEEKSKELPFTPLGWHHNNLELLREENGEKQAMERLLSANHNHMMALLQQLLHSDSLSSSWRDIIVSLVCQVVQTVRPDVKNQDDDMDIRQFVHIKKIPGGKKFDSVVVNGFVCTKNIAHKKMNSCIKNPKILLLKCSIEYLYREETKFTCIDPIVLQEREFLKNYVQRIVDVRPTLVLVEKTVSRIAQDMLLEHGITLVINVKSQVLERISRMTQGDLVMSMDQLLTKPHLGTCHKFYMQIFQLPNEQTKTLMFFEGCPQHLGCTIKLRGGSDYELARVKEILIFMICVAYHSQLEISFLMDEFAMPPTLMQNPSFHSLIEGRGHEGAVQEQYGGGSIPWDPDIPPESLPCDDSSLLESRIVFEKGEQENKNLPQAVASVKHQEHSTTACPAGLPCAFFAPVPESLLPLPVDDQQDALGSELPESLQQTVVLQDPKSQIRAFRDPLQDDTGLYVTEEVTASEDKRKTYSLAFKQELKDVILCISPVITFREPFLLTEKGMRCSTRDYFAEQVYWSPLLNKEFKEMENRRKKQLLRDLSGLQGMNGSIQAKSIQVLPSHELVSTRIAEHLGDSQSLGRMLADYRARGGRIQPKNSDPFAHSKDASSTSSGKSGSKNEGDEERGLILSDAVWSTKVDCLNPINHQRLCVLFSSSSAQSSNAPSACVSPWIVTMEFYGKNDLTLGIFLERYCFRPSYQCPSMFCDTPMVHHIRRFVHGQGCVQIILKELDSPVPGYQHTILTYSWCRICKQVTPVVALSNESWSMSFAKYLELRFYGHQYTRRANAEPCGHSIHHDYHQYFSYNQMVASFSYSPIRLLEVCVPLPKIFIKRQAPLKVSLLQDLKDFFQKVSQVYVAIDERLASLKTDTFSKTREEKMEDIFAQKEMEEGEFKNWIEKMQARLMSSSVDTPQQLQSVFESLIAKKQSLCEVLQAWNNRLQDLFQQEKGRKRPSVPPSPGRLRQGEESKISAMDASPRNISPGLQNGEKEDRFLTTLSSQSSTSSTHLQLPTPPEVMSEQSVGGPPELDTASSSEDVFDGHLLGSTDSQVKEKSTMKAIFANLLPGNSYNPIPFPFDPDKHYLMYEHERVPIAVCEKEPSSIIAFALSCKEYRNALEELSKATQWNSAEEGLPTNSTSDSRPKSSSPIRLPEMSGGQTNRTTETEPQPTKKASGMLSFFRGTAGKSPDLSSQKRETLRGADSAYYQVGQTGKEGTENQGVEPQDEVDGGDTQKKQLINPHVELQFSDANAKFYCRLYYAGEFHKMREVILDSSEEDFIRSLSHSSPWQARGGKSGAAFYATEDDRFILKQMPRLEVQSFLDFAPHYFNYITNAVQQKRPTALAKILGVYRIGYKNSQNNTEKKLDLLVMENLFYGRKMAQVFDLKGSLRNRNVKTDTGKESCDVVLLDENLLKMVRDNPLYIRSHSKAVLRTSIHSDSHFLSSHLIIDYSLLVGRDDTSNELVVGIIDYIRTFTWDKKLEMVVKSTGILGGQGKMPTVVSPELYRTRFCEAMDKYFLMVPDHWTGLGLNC

The assay has as its target full-length human PIKFYVE (N-terminal GST-fusion) (Homo sapiens (Human), UniProt Q9Y2I7, L932S/Q1183K/Q995L/S1033A/S696N/T998S). Briefly: PIKfyve biochemical assay (ADP-Glo Kinase assay, Carna Biosciences). Particulars: ADP-Glo, full-length human GST-PIKFYVE, 10 μM to 3 nM; read-out: hPIKfyve IC50.
Description: (§1) PIKfyve Biochemical Assay. The biochemical PIKfyve inhibition assays were run by Carna Biosciences according to proprietary methodology based on the Promega ADP-Glo™ Kinase assay. A full-length human PIKFYVE [1-2098(end) amino acids and S696N, L932S, Q995L, T998S, S1033A and Q1183K of the protein having the sequence set forth in NCBI Reference Sequence No. NP_055855.2] was expressed as N-terminal GST-fusion protein (265 kDa) using baculovirus expression system. GST-PIKFYVE was purified by using glutathione sepharose chromatography and used in an ADP-Glo™ Kinase assay (Promega). Reactions were set up by adding the test compound solution, substrate solution, ATP solution and kinase solution, each at 4× final concentrations. Reactions were prepared with assay buffer (50 mM MOPS, 1 mM DTT, pH7.2), mixed, and incubated in black 384 well polystyrene plates for 1 hour at room temperature. ADP-Glo™ reagent was then added for 40 minutes, followed by kinase detection reagent for an additional 40 minutes. The kinase activity was evaluated by detecting relative light units on a luminescence plate reader. Samples were run in duplicate from 10 μM to 3 nM. […] IC50 values were calculated from concentration vs % inhibition curves by fitting to a four-parameter logistic curve.
as §1, with “The” for “PIKfyve Biochemical Assay. The”, “accession number” for “the protein having the sequence set forth in NCBI Reference Sequence No.”, “curve. […]” for “curve.”
Consider `COc1cccc(-c2nccc(-c3nc(N4CCOCC4)nc4c3CCN4c3cccnc3)n2)c1` [Compound 123, 4-(4-(2-(3-methoxyphenyl)pyrimidin-4-yl)-7-(pyridin-3-yl)-6,7-dihydro-5H-pyrrolo[2,3-d]pyrimidin-2-yl)morpholine], for which the IC50 – broadly, the concentration at which inhibition is half-maximal – lay within 100 to 1000 nM.

With `CN1CCC(COc2nc(N3CCOCC3)nc3c2CCN3c2cccnc2)C1` (stereo not drawn) [Compound 35, 4-(4-((1-methylpyrrolidin-3-yl)methoxy)-7-(pyridin-3-yl)-6,7-dihydro-6H-pyrrolo[2,3-d]pyrimidin-2-yl)morpholine], the half-maximal inhibitory concentration (IC50) was 100 to 1000 nM.

On to `c1ccc(N2CCc3c(-c4cnco4)nc(N4CCOCC4)nc32)cc1` [Compound 101, 4-(4-(oxazol-5-yl)-7-phenyl-6,7-dihydro-5H-pyrrolo[2,3-d]pyrimidin-2-yl)morpholine], for which the IC50 lay in the range of 10 to 100 nM.

Regarding `O=c1ccccn1-c1nc(N2CCOCC2)nc2c1CCN2c1ccccc1` [Compound 50, 1-(2-morpholino-7-phenyl-6,7-dihydro-5H-pyrrolo[2,3-d]pyrimidin-4-yl)pyridin-2(1H)-one], the IC50 lay in the range of 100 to 1000 nM.

On to `c1ccc(Oc2nc(N3CCOCC3)nc3c2CCN3c2cccnc2)nc1` [Compound 51, 4-(4-(pyridin-2-yloxy)-7-(pyridin-3-yl)-6,7-dihydro-5H-pyrrolo[2,3-d]pyrimidin-2-yl)morpholine], for which the 50% inhibitory concentration (IC50) was 100 to 1000 nM.

For `O=C1COc2c(OCc3cccnc3)nc(N3CCOCC3)nc2N1c1ccccc1` [Compound 130, 2-morpholino-8-phenyl-4-(pyridin-3-ylmethoxy)-6H-pyrimido[5,4-b][1,4]oxazin-7(8H)-one], the 50% inhibitory concentration (IC50) was in the range of 100 to 1000 nM.

For `c1cncc(N2CCc3c(-c4ccnnc4)nc(N4CCOCC4)nc32)c1` [Compound 97], the half-maximal inhibitory concentration (IC50) fell in the range of 10 to 100 nM.

In the case of `CN1CCCC(COc2nc(N3CCOCC3)nc3c2CCN3c2cnn(C)c2)C1` (stereo not drawn) [Compound 18], the IC50 lay in the range of 1000 to 10000 nM.

Regarding `c1cncc(N2CCc3c(N4Cc5ccccc5C4)nc(N4CCOCC4)nc32)c1` [Compound 80, 4-(4-(isoindolin-2-yl)-7-(pyridin-3-yl)-6,7-dihydro-5H-pyrrolo[2,3-d]pyrimidin-2-yl)morpholine], the IC50 was 10 to 100 nM.

Turning to `c1ccc(N2CCc3c(COC4CCOCC4)nc(N4CCOCC4)nc32)cc1` [Compound 61, 4-(7-phenyl-4-(((tetrahydro-2H-pyran-4-yl)oxy)methyl)-6,7-dihydro-5H-pyrrolo[2,3-d]pyrimidin-2-yl)morpholine], the IC50 fell in the range of 100 to 1000 nM.

For `c1ccc(-n2cc(N3CCc4c(Oc5cccnc5)nc(N5CCOCC5)nc43)cn2)cc1` [Compound 71, 4-(7-(1-phenyl-1H-pyrazol-4-yl)-4-(pyridin-3-yloxy)-6,7-dihydro-5H-pyrrolo[2,3-d]pyrimidin-2-yl)morpholine], the IC50 lay in the range of 10 to 100 nM.

For the compound `c1cc(-c2nc(N3CCOCC3)nc3c2CCN3C2CCOCC2)ccn1` [Compound 95, 4-(4-(pyridin-4-yl)-7-(tetrahydro-2H-pyran-4-yl)-6,7-dihydro-5H-pyrrolo[2,3-d]pyrimidin-2-yl)morpholine], the concentration for half-maximal inhibition (IC50) lay in the range of 100 to 1000 nM.

With `OCCn1cc(-c2cccc(-n3cccn3)c2)c2nc(N3CCOCC3)nc(-c3ccncc3)c21` [Compound 149, 2-(7-(3-(1H-pyrazol-1-yl)phenyl)-2-morpholino-4-(pyridin-4-yl)-6H-pyrrolo[3,2-d]pyrimidin-5-yl)ethan-1-ol], the IC50 was in the range of 100 to 1000 nM.

In the case of `c1ccc(N2CCc3c(-c4cncnc4)nc(N4CCOCC4)nc32)cc1` [Compound 100, 4-(7-phenyl-4-(pyrimidin-5-yl)-6,7-dihydro-5H-pyrrolo[2,3-d]pyrimidin-2-yl)morpholine], the IC50 lay within 10 to 100 nM.

With `CC(C)(C)OC(=O)N1CC(COc2nc(N3CCOCC3)nc3c2CCN3c2cccnc2)C1` [Compound 37, tert-butyl 3-(((2-morpholino-7-(pyridin-3-yl)-6,7-dihydro-5H-pyrrolo[2,3-d]pyrimidin-4-yl)oxy)methyl)azetidine-1-carboxylate], the IC50 lay in the range of 100 to 1000 nM.

As to `c1ccc(N2CCc3c(OCCc4ccccn4)nc(N4CCOCC4)nc32)cc1` [Compound 44, 4-(7-phenyl-4-(2-(pyridin-2-yl)ethoxy)-6,7-dihydro-5H-pyrrolo[2,3-d]pyrimidin-2-yl)morpholine], the IC50 was in the range of 10 to 100 nM.

For `CN1CCOC(COc2nc(N3CCOCC3)nc3c2CCN3c2cccnc2)C1` (stereo not drawn) [Compound 12, 4-methyl-2-((2-morpholino-7-(pyridin-3-yl)-6,7-dihydro-5H-pyrrolo[2,3-d]pyrimidin-4-yloxy)methyl)morpholine], the 50% inhibitory concentration (IC50) fell in the range of 100 to 1000 nM.

Regarding `c1ccc(-c2ccn(-c3nc(N4CCOCC4)nc4c3CCN4c3ccncc3)n2)cc1` [Compound 84, 4-(4-(3-phenyl-1H-pyrazol-1-yl)-7-(pyridin-4-yl)-6,7-dihydro-6H-pyrrolo[2,3-d]pyrimidin-2-yl)morpholine], the IC50 was in the range of 10 to 100 nM.

As to `c1ccc(-n2cc(N3CCc4c(Oc5cccnc5)nc(N5CCOCC5)nc43)nn2)cc1` [Compound 69, 4-(7-(1-phenyl-1H-1,2,3-triazol-4-yl)-4-(pyridin-3-yloxy)-6,7-dihydro-5H-pyrrolo[2,3-d]pyrimidin-2-yl)morpholine], the half-inhibitory concentration (IC50) lay in the range of 10 to 100 nM.

As for `Fc1cccc(N2CCc3c(C4CCOC4)nc(N4CCOCC4)nc32)c1` (stereo not drawn) [Compound 94, 4-(7-(3-fluorophenyl)-4-(tetrahydro-furan-3-yl)-6,7-dihydro-5H-pyrrolo[2,3-d]pyrimidin-2-yl)morpholine], the IC50 lay in the range of 100 to 1000 nM.

With `CN1CC(c2nc(N3CCOCC3)nc3c2CCN3c2ccccc2)C1` [Compound 117, 4-(4-(1-methylazetidin-3-yl)-7-phenyl-6,7-dihydro-5H-pyrrolo[2,3-d]pyrimidin-2-yl)morpholine], the IC50 lay in the range of 100 to 1000 nM.

Take `CN1CCCC(COc2nc(N3CCOCC3)nc3c2CCN3c2ccnnc2)C1` (stereo not drawn) [Compound 17, 4-(4-((1-methylpiperidin-3-yl)methoxy)-7-(pyridazin-4-yl)-6,7-dihydro-5H-pyrrolo[2,3-d]pyrimidin-2-yl)morpholine]: the IC50 is 100 to 1000 nM.

For `CC(=O)N1CCC(COc2nc(N3CCOCC3)nc3c2CCN3c2cccnc2)C1` (stereo not drawn) [Compound 36, 1-(3-(((2-morpholino-7-(pyridin-3-yl)-6,7-dihydro-5H-pyrrolo[2,3-d]pyrimidin-4-yl)oxy)methyl)pyrrolidin-1-yl)ethan-1-one], the IC50 lay in the range of 100 to 1000 nM.

Turning to `CC(=O)N1CCC(c2nc(N3CCOCC3)nc3c2CCN3c2ccccc2)C1` (stereo not drawn) [Compound 119, 1-(3-(2-morpholino-7-phenyl-6,7-dihydro-5H-pyrrolo[2,3-d]pyrimidin-4-yl)pyrrolidin-1-yl)ethanone], the IC50 is 10 to 100 nM.

On to `Cc1cccc(/C=N/Nc2nc(N3CCOCC3)nc3c2CCN3c2cccnc2)c1` [Compound 82, (E)-4-(4-(2-(3-methylbenzylidene)hydrazineyl)-7-(pyridin-3-yl)-6,7-dihydro-6H-pyrrolo[2,3-d]pyrimidin-2-yl)morpholine], for which the half-maximal inhibitory concentration (IC50) is < 10 nM.

For the compound `CC(C)(O)Cc1nc(N2CCOCC2)nc2c1CCN2c1ccccc1` [Compound 46, 2-methyl-1-(2-morpholino-7-phenyl-6,7-dihydro-5H-pyrrolo[2,3-d]pyrimidin-4-yl)propan-2-ol], the concentration for half-maximal inhibition (IC50) was in the range of 10 to 100 nM.

As to `N#Cc1nc(N2CCOCC2)nc2c1CCN2c1ccccc1` [Compound 47, 2-morpholino-7-phenyl-6,7-dihydro-5H-pyrrolo[2,3-d]pyrimidine-4-carbonitrile], the IC50 lay within 100 to 1000 nM.
